This passage reports Ki results from ChEMBL document CHEMBL1147836, “Benzo[b]thiophene-2-carboxamides and benzo[b]furan-2-carboxamides are potent antagonists of the human H3-receptor” (Bioorg Med Chem Lett, 2006).

One may read the Ki as a dissociation constant, usually derived from enzyme kinetics or from competition with a known ligand. High values mean lower affinity, low ones higher affinity.

Molecules are shown by their SMILES.

This assay concerns the target Histamine H3 receptor (Homo sapiens, UniProt Q9Y5N1). Kind of assay: Antagonist activity at human histamine H3 receptor by [35S]GTP-gamma-S assay. In kind it is functional. A general note: Binding of GTPγS marks nucleotide exchange on a G protein.

Histamine H3 receptor, sequence (Q9Y5N1 whole entry): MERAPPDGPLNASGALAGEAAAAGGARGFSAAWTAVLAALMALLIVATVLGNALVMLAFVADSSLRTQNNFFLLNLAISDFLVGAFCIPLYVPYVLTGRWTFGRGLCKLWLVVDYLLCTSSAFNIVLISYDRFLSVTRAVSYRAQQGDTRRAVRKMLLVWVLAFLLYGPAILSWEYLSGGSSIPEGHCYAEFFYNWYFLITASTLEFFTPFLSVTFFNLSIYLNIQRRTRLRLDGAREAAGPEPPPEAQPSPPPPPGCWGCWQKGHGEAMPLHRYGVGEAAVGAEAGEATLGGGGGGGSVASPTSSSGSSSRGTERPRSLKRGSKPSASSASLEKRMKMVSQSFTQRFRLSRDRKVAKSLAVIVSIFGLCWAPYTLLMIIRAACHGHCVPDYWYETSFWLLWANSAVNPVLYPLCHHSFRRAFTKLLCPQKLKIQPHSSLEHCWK

Consider `O=C(c1cc2cc(OC(F)(F)F)ccc2o1)N1CCC[C@H]1CN1CCCC1`, for which the affinity corresponds to a Ki of 11 nM.

In turn, `O=C(c1cc2ccc(C(F)(F)F)cc2o1)N1CCC[C@H]1CN1CCCCC1` had a Ki of 22 nM.

Regarding `CCN(CC)C[C@@H]1CCCN1C(=O)c1cc2ccc(C(F)(F)F)cc2o1`, the Ki is 46 nM.

As to `CCN(CC)C[C@@H]1CCCN1C(=O)c1cc2cc(C(F)(F)F)ccc2o1`, the affinity, expressed as Ki, was 14 nM.

In turn, `CCOc1cccc2cc(C(=O)N3CCC[C@H]3CN3CCCC3)oc12` registered a Ki of 7 nM.

Take `O=C(c1cc2ccccc2s1)N1CCC[C@H]1CN1CCCC1`: affinity was put at a Ki of 4 nM.

Molecule `O=C(c1cnc2ccccc2c1)N1CCC[C@H]1CN1CCCCC1` returned a Ki greater than 150 nM.

Take `O=C(c1cc2cc(Cl)ccc2o1)N1CCC[C@H]1CN1CCCC1`: the affinity corresponds to a Ki of 5 nM.

As for `O=C(c1cc2ccc(C(F)(F)F)cc2o1)N1CCC[C@H]1CN1CCCC1`, the Ki is 15 nM.

For `O=C(c1cc2cc(C(F)(F)F)ccc2o1)N1CCC[C@H]1CN1CCCC1`, the Ki worked out at 4 nM.

In turn, `N#Cc1ccc2oc(C(=O)N3CCC[C@H]3CN3CCCC3)cc2c1` gave a Ki of 5 nM.

Molecule `O=C(c1cc2cc(C(F)(F)F)ccc2o1)N1CCC[C@H]1CN1CCCCC1` displayed a Ki of 7 nM.

As for `O=C(c1cnc2ccccc2c1)N1CCC[C@H]1CN1CCCC1`, the Ki is greater than 150 nM.

In the case of `O=C(c1sc2ccccc2c1Cl)N1CCC[C@H]1CN1CCCC1`, the affinity corresponds to a Ki of 12 nM.
